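In this assay, cells in 96-well plates receive the compound at five concentrations for 48 hours. Endpoints are linearly interpolated between the surrounding concentrations. The concentration for 50% growth inhibition is given as GI50. TGI: concentration producing complete growth inhibition.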
Columns and labels:
Assay in all cases: NCI-60 cell line screen, 48 h
LOX IMVI melanoma = test system: LOX IMVI melanoma
MALME-3M melanoma = test system: MALME-3M melanoma
OVCAR-8 ovarian = test system: OVCAR-8 ovarian
MDA-MB-435 = test system: MDA-MB-435
ACHN renal = test system: ACHN renal
NCI-H226 lung = test system: NCI-H226 lung
NCI-H522 lung = test system: NCI-H522 lung
SK-MEL-5 melanoma = test system: SK-MEL-5 melanoma
HCT-15 colon = test system: HCT-15 colon
RPMI-8226 leukemia = test system: RPMI-8226 leukemia

SMILES: COc1cc(NCc2ccccc2O)c2ncccc2c1
- GI50 (LOX IMVI melanoma): 17.1 µM
- TGI (LOX IMVI melanoma): 67.3 µM
- GI50 (MALME-3M melanoma): 14 µM
- TGI (MALME-3M melanoma): 44.4 µM
- GI50 (OVCAR-8 ovarian): 25.4 µM
- TGI (OVCAR-8 ovarian): > 100 µM
- GI50 (MDA-MB-435): 11.6 µM
- TGI (MDA-MB-435): 37.9 µM
- GI50 (ACHN renal): 26.8 µM
- TGI (ACHN renal): > 100 µM
- GI50 (NCI-H226 lung): 20.8 µM
- TGI (NCI-H226 lung): > 100 µM
- GI50 (NCI-H522 lung): 10.1 µM
- TGI (NCI-H522 lung): 43 µM
- GI50 (SK-MEL-5 melanoma): 10.1 µM
- TGI (SK-MEL-5 melanoma): 23.4 µM
- GI50 (HCT-15 colon): 7.09 µM
- TGI (HCT-15 colon): > 100 µM
- GI50 (RPMI-8226 leukemia): 11.8 µM
- TGI (RPMI-8226 leukemia): 79.5 µM

SMILES: O=C(Nc1ccccc1O)c1ccc(CNC(=O)c2sccc2Nc2ccnc(C(F)(F)F)c2)cc1
- GI50 (LOX IMVI melanoma): 5.51 µM
- TGI (LOX IMVI melanoma): 18.9 µM
- GI50 (MALME-3M melanoma): 2.5 µM
- TGI (MALME-3M melanoma): 21.5 µM
- GI50 (OVCAR-8 ovarian): 3.44 µM
- TGI (OVCAR-8 ovarian): 41.2 µM
- GI50 (MDA-MB-435): 4.09 µM
- TGI (MDA-MB-435): 17.8 µM
- GI50 (ACHN renal): 4.95 µM
- TGI (ACHN renal): 26.5 µM
- GI50 (NCI-H226 lung): 8.07 µM
- TGI (NCI-H226 lung): 45 µM
- GI50 (NCI-H522 lung): 5.06 µM
- TGI (NCI-H522 lung): 27.7 µM
- GI50 (SK-MEL-5 melanoma): 1.94 µM
- TGI (SK-MEL-5 melanoma): 4.7 µM
- GI50 (HCT-15 colon): 6.54 µM
- TGI (HCT-15 colon): 26.8 µM
- GI50 (RPMI-8226 leukemia): 3.59 µM
- TGI (RPMI-8226 leukemia): 36.2 µM

SMILES: COc1ccc(CC(NC(=O)[C@H](C)NC(=O)CN2CCOCC2)C(=O)N[C@@H](Cc2ccccc2)C(=O)[C@@]2(C)CO2)cc1 (some centres undefined)
- GI50 (LOX IMVI melanoma): 0.148 µM
- TGI (LOX IMVI melanoma): 0.379 µM
- GI50 (MALME-3M melanoma): 0.281 µM
- TGI (MALME-3M melanoma): 1.41 µM
- GI50 (OVCAR-8 ovarian): 0.342 µM
- GI50 (MDA-MB-435): 0.069 µM
- TGI (MDA-MB-435): 0.484 µM
- GI50 (ACHN renal): 0.801 µM
- TGI (ACHN renal): > 33.5 µM
- GI50 (NCI-H226 lung): 0.246 µM
- TGI (NCI-H226 lung): 0.725 µM
- GI50 (NCI-H522 lung): 0.278 µM
- TGI (NCI-H522 lung): 0.908 µM
- GI50 (SK-MEL-5 melanoma): 0.177 µM
- TGI (SK-MEL-5 melanoma): 0.379 µM
- GI50 (HCT-15 colon): 5.64 µM
- TGI (HCT-15 colon): 76.3 µM
- GI50 (RPMI-8226 leukemia): 0.0565 µM
- TGI (RPMI-8226 leukemia): > 100 µM

SMILES: O=S(=O)(O)/C(=C\c1ccccc1)c1ccccc1 (tested in a mixture with another compound)
- TGI (LOX IMVI melanoma): > 100 µM
- TGI (MALME-3M melanoma): > 100 µM
- TGI (OVCAR-8 ovarian): > 100 µM
- TGI (MDA-MB-435): > 100 µM
- TGI (ACHN renal): > 100 µM
- TGI (NCI-H226 lung): > 100 µM
- TGI (NCI-H522 lung): > 100 µM
- TGI (SK-MEL-5 melanoma): > 100 µM
- TGI (HCT-15 colon): > 100 µM
- TGI (RPMI-8226 leukemia): > 100 µM

SMILES: Cc1cccc2c1O/C(=C\c1ccc([N+](=O)[O-])o1)C2=O
- GI50 (LOX IMVI melanoma): 1.23 µM
- TGI (LOX IMVI melanoma): 2.69 µM
- GI50 (MALME-3M melanoma): 0.971 µM
- TGI (MALME-3M melanoma): 2.66 µM
- GI50 (OVCAR-8 ovarian): 0.941 µM
- TGI (OVCAR-8 ovarian): 7.93 µM
- GI50 (MDA-MB-435): 1.02 µM
- TGI (MDA-MB-435): 2.46 µM
- GI50 (ACHN renal): 0.367 µM
- TGI (ACHN renal): 1.44 µM
- GI50 (NCI-H226 lung): 1.42 µM
- TGI (NCI-H226 lung): 3.14 µM
- GI50 (NCI-H522 lung): 0.222 µM
- TGI (NCI-H522 lung): 0.668 µM
- GI50 (SK-MEL-5 melanoma): 1.14 µM
- TGI (SK-MEL-5 melanoma): 2.42 µM
- GI50 (HCT-15 colon): 0.274 µM
- TGI (HCT-15 colon): 0.998 µM
- GI50 (RPMI-8226 leukemia): 0.32 µM
- TGI (RPMI-8226 leukemia): 1.8 µM

SMILES: COC1C(O)C(C)OC(OC2CC3CCC4C(CCC5(C)C(C6=CC(=O)OC6)CCC45O)C3(O)C(OC(C)=O)C2)C1O (centres undefined)
- TGI (LOX IMVI melanoma): 4.7 µM
- TGI (MALME-3M melanoma): 3.74 µM
- TGI (OVCAR-8 ovarian): 5.35 µM
- TGI (MDA-MB-435): 10.5 µM
- TGI (ACHN renal): 2.13 µM
- TGI (NCI-H226 lung): 10.3 µM
- TGI (NCI-H522 lung): 3.21 µM
- TGI (SK-MEL-5 melanoma): 2.03 µM
- TGI (HCT-15 colon): 5.41 µM
- TGI (RPMI-8226 leukemia): 7.55 µM

SMILES: O=C(O)c1cscc1Cc1cccs1
- TGI (LOX IMVI melanoma): > 100 µM
- TGI (MALME-3M melanoma): > 100 µM
- TGI (OVCAR-8 ovarian): > 100 µM
- TGI (MDA-MB-435): > 100 µM
- TGI (ACHN renal): > 100 µM
- TGI (NCI-H226 lung): > 100 µM
- TGI (NCI-H522 lung): > 100 µM
- TGI (SK-MEL-5 melanoma): > 100 µM
- TGI (HCT-15 colon): > 100 µM
- TGI (RPMI-8226 leukemia): > 100 µM

SMILES: C(=C\c1nccc2c1[nH]c1ccccc12)/c1ccccc1
- GI50 (LOX IMVI melanoma): 2.99 µM
- TGI (LOX IMVI melanoma): 12.2 µM
- GI50 (MALME-3M melanoma): 4.5 µM
- TGI (MALME-3M melanoma): 27.7 µM
- GI50 (OVCAR-8 ovarian): 4.69 µM
- TGI (OVCAR-8 ovarian): > 100 µM
- GI50 (MDA-MB-435): 0.356 µM
- TGI (MDA-MB-435): 1.81 µM
- GI50 (ACHN renal): 4.82 µM
- TGI (ACHN renal): 20.8 µM
- GI50 (NCI-H226 lung): 4.09 µM
- TGI (NCI-H226 lung): > 100 µM
- GI50 (NCI-H522 lung): 2.38 µM
- TGI (NCI-H522 lung): 7.94 µM
- GI50 (SK-MEL-5 melanoma): 2.27 µM
- TGI (SK-MEL-5 melanoma): 8.05 µM
- GI50 (HCT-15 colon): 2.43 µM
- TGI (HCT-15 colon): 17.5 µM
- GI50 (RPMI-8226 leukemia): 1.07 µM
- TGI (RPMI-8226 leukemia): 3.92 µM

SMILES: CCc1c(O)c2c(c(O)c1C(C)=O)C(=O)c1c(cc(O)c(C(=O)O)c1C(=O)O)C2=O
- TGI (LOX IMVI melanoma): > 100 µM
- TGI (MALME-3M melanoma): > 100 µM
- TGI (OVCAR-8 ovarian): > 100 µM
- TGI (MDA-MB-435): > 100 µM
- TGI (ACHN renal): > 100 µM
- TGI (NCI-H226 lung): > 100 µM
- TGI (NCI-H522 lung): > 100 µM
- TGI (SK-MEL-5 melanoma): > 100 µM
- TGI (HCT-15 colon): > 100 µM
- TGI (RPMI-8226 leukemia): > 100 µM

SMILES: COc1cc(C2=NN(c3ccc(S(N)(=O)=O)cc3)C(c3ccc(Cl)cc3)C2)cc(OC)c1OC (centres undefined)
- GI50 (LOX IMVI melanoma): 5.15 µM
- TGI (LOX IMVI melanoma): > 100 µM
- GI50 (MALME-3M melanoma): 11.4 µM
- TGI (MALME-3M melanoma): > 100 µM
- GI50 (OVCAR-8 ovarian): 4.85 µM
- TGI (OVCAR-8 ovarian): > 100 µM
- GI50 (MDA-MB-435): 3.74 µM
- TGI (MDA-MB-435): > 100 µM
- GI50 (ACHN renal): 2.62 µM
- TGI (ACHN renal): 9.27 µM
- GI50 (NCI-H226 lung): 7.25 µM
- TGI (NCI-H226 lung): > 100 µM
- GI50 (NCI-H522 lung): 3.03 µM
- TGI (NCI-H522 lung): > 100 µM
- GI50 (SK-MEL-5 melanoma): 3.35 µM
- TGI (SK-MEL-5 melanoma): 18 µM
- GI50 (HCT-15 colon): 3.77 µM
- TGI (HCT-15 colon): > 100 µM
- GI50 (RPMI-8226 leukemia): 3.7 µM
- TGI (RPMI-8226 leukemia): > 100 µM

SMILES: C#Cc1cccc(Oc2ccc(NC(=O)CCl)cc2)c1
- GI50 (LOX IMVI melanoma): 18.1 µM
- TGI (LOX IMVI melanoma): > 82.5 µM
- GI50 (MALME-3M melanoma): 37.3 µM
- TGI (MALME-3M melanoma): > 82.5 µM
- GI50 (OVCAR-8 ovarian): 64.3 µM
- TGI (OVCAR-8 ovarian): > 82.5 µM
- GI50 (MDA-MB-435): > 82.5 µM
- TGI (MDA-MB-435): > 82.5 µM
- GI50 (ACHN renal): > 82.5 µM
- TGI (ACHN renal): > 82.5 µM
- GI50 (NCI-H226 lung): > 82.5 µM
- TGI (NCI-H226 lung): > 82.5 µM
- GI50 (NCI-H522 lung): 33.5 µM
- TGI (NCI-H522 lung): > 82.5 µM
- GI50 (SK-MEL-5 melanoma): 33.6 µM
- TGI (SK-MEL-5 melanoma): > 82.5 µM
- GI50 (HCT-15 colon): 6.36 µM
- TGI (HCT-15 colon): > 82.5 µM
- GI50 (RPMI-8226 leukemia): > 82.5 µM
- TGI (RPMI-8226 leukemia): > 82.5 µM

SMILES: Cc1cc(C)c2c(SCc3ccc(Cl)cc3Cl)nc(N)nc2n1
- TGI (LOX IMVI melanoma): > 100 µM
- TGI (MALME-3M melanoma): > 100 µM
- TGI (OVCAR-8 ovarian): > 100 µM
- TGI (MDA-MB-435): > 100 µM
- TGI (ACHN renal): > 100 µM
- TGI (NCI-H226 lung): > 100 µM
- TGI (NCI-H522 lung): 57.1 µM
- TGI (SK-MEL-5 melanoma): > 100 µM
- TGI (HCT-15 colon): > 100 µM
- TGI (RPMI-8226 leukemia): > 100 µM
